# Source: patent US20240398849A1, “METHODS FOR THE TREATMENT OF […] WITH CYCLODEXTRINS” (BEREN THERAPEUTICS P.B.C., priority 2022, published 2024)
# What was measured:
# volunteers [1] = test: Triglyceride levels in volunteers after a single intravenous dose of HPBCD (FIG. 3A); type: in vivo, humans
# Procedure: Twenty-nine volunteers were divided into five groups. Each group was administered an intravenous dose of 50 mg/kg, 250 mg/kg, 500 mg/kg, 1000 mg/kg or 1500 mg/kg of HPBCD as shown in FIG. 3A. Blood samples were taken immediately prior to injection to establish a baseline triglyceride concentration, and at 24 hours (D2) and 48 hours (D3) post injection for measurement of triglyceride levels. […] Overall, triglyceride levels of participants decreased, particularly evident in participants with higher baseline triglyceride concentrations.
# [2] = tested on: LDL receptor deficient (LDLR−/−) mice; test: Serum triglyceride levels in LDLR−/− mouse model after 2 g/kg HPBCD; type: in vivo
# Source text: LDL receptor deficient (LDLR^−/−) mice were divided into 6 Groups. Prior to the administration of 2 g/kg of HPBCD, Group 1 was fed with normal chow diet (NC) for 5 weeks and Group 2-Group 6 were fed with high-fat (42%), high-cholesterol (1.2%) Western diet (WD) for various durations up to 9 weeks. Experimental scheme and diet schedule is described in FIG. 1A. Mice of Group 1 were further categorized into 3 sub-Groups (e.g., Group 1.1, Group 1.2, and Group 1.3) according to the administration of HPBCD as shown in FIG. 1B. Blood samples were taken from the mouse models, after 5 weeks of feeding and at a certain period of time (e.g., 1 week, 2 weeks, 3 weeks, 4 weeks after 2 g/kg HPBCD treatment), for measurement of triglyceride levels in each model Group. […] (FIG. 2A).
# volunteers [3] = test: Separate placebo-controlled study: change in triglyceride levels from baseline in volunteers (FIG. 3B-3D); type: in vivo, humans; conditions: intravenous 500, 1000 or 1500 mg/kg
# Procedure: In a separate study, volunteers were divided into four groups. Each group was administered an intravenous dose of placebo or an intravenous dose of 500 mg/kg, 1000 mg/kg or 1500 mg/kg of HPBCD as shown in FIG. 3B. Blood samples were taken immediately prior to injection to establish a baseline triglyceride concentration, and at 24 hours (left bar) and 48 hours (right bar) post injection. Triglyceride levels are presented as the median average percentage change from baseline. […] The data in FIG. 3B were divided into two groups for further analysis. Group 1 consisted of the portion of the cohort which had baseline triglyceride levels greater than 100 mg/dL. Group 2 had baseline triglyceride levels less than or equal to 100 mg/dL. The average percentage change of triglyceride levels from baseline of Group 1 and Group 2 is shown in FIG. 3C and FIG. 3D respectively. […] This is consistent with the marked reduction (˜30%) in triglyceride levels observed for the one participant in FIG. 3A with a baseline triglyceride level of approximately 425 mg/dL.
structure (smiles),measurement,setting,value
"CC(O)COC[C@H]1O[C@@H]2O[C@H]3[C@H](O)[C@@H](O)[C@@H](O[C@H]4[C@H](O)[C@@H](O)[C@@H](O[C@H]5[C@H](O)[C@@H](O)[C@@H](O[C@H]6[C@H](O)[C@@H](O)[C@@H](O[C@H]7[C@H](O)[C@@H](O)[C@@H](O[C@H]8[C@H](O)[C@@H](O)[C@@H](O[C@H]1[C@H](O)[C@H]2O)O[C@@H]8COCC(C)O)O[C@@H]7COCC(C)O)O[C@@H]6COCC(C)O)O[C@@H]5COCC(C)O)O[C@@H]4COCC(C)O)O[C@@H]3COCC(C)O (stereo partly drawn) [HPBCD, 2-hydroxypropyl-beta-cyclodextrin]",reduction in triglyceride levels,volunteers [1]; one participant in FIG. 3A with baseline triglyceride level of approximately 425 mg/dL,~30%
same,triglyceride levels following administration (safety),"volunteers [1]; volunteers, intravenous 50, 250, 500, 1000 or 1500 mg/kg, 24 h and 48 h post injection, any tested dose, FIG. 3A",did not significantly increase
same,triglyceride levels of participants overall,"volunteers [1]; volunteers, intravenous 50-1500 mg/kg, 24 h and 48 h post injection, particularly evident with higher baseline triglyceride",decreased
same,triglyceride levels of WD-fed mice after the administration of HPBCD,"[2]; Western diet (WD), blood sampled 1-4 weeks after treatment, FIG. 2A",decreased over time
same,triglyceride level of NC-fed mice after the administration of HPBCD,"[2]; normal chow diet (NC), FIG. 2B",decreased from 24 hours after the administration
same,"reduction in triglyceride levels, Group 1 (baseline >100 mg/dL) versus Group 2 (baseline ≤100 mg/dL)","volunteers [3]; 24 h and 48 h, FIG. 3C and 3D",greater reduction in triglyceride levels was observed in participants in Group 1 than those in Group 2
same,"triglyceride levels, median average percentage change from baseline","volunteers [3]; 24 h and 48 h post injection, any tested dose, FIG. 3B",did not increase
